# From patent publication US12220393B2, “Compositions and methods for the treatment of zika viral diseases” (The ProImmune Company LLC, priority 2017, dated 2025)
# Assays:
# [1] = tested on: total intracellular glutathione; assay: Total intracellular glutathione in Zika virus infected Vero cells; type: cell-based, African green monkey (Chlorocebus sp.); conditions: by 48 hours post BSO-treatment
# Procedure: (§1) FIGS. 4A and 4B show effect of FFAAP on total intracellular GSH and Zika virus replication in Zika virus infected Vero cells (ZIKV). Vero cells, grown to approximately 90-95% confluence (mid-log phase), were treated with and grown in the presence of increasing concentrations of FFAAP for 3 days. At each time point, medium was discarded and cells were harvested to measure intracellular concentrations of total GSH. […] All experiments shown were performed in triplicates and the data shown are representative data from multiple independent experiments. Standard error bars were calculated using Microsoft Excel and significance assessments were performed using GRAPHPAD PRISM. * indicates a p-value <0.05 and >0.01; ** indicates a p-value <0.01 and >0.001; and *** indicates a p-value <0.001.
# (§2) FIG. 5A-5D show effects of inhibition of glutathione biosynthesis on Zika virus replication in Vero cells. […] Standard error bars were calculated using Microsoft Excel and significance assessments were performed using GRAPHPAD PRISM. * indicates a p-value <0.05 and >0.01; ** indicates a p-value <0.01 and >0.001; and *** indicates a p-value <0.001.
# (§3) Glutathione Precursors and Glutathione Assays. […] Effective blockade was assessed by measurements of intracellular reduced and oxidized glutathione in the presence of inhibitor.
# Zika virus [2] = assay: Quantification of Zika virus titers in infected JEG-3 cells; type: cell-based; conditions: BSO 200 μM
# Procedure: (§4) FIGS. 6A-6D show effects of inhibition of glutathione biosynthesis on Zika virus replication in JEG-3 cells. […] All experiments were performed in triplicates and the data shown are representative data from multiple independent experiments. Standard error bars were calculated using Microsoft Excel and significance assessments were performed using GRAPHPAD PRISM. * indicates a p-value <0.05 and >0.01; ** indicates a p-value <0.01 and >0.001; and *** indicates a p-value <0.001.
# FFAAP treatment of cells. […] Cells infected with Zika virus were treated with the above concentration 1.5 hours post adsorption for quantification of virus titers. For plaque enumeration assay cells were treated with FFAAP at the time of adsorption and the treatment was continued for 3 days in semi-solid medium. For these assays the final concentrations in the cell culture medium of the infected and uninfected cells were 0, 2.5, 5.0, and 10 mM FFAAP from solubilized stock solution prepared for FFAAP. Inhibitory concentration (IC50) was used as per definitions provided by GRAPHPAD Software) to evaluate dose-response curves.
# Approximately 95% sub-confluent Vero cells or JEG-3 cells were infected Zika in a 48-well plate. After 1.5 hours post-adsorption (HPA), virus inoculum was removed and media with or without FFAAP was added to the respective wells. […]
# Zika virus [3] = assay: Quantification of Zika virus titers in infected Vero cells; type: cell-based; conditions: BSO 200 μM, MOI 0.1
# Procedure: as §1, §2
# FFAAP treatment of cells. […] Cells infected with Zika virus were treated with the above concentration 1.5 hours post adsorption for quantification of virus titers. […]
# [4] = tested on: intracellular glutathione; assay: Intracellular glutathione in JEG-3 cells; type: cell-based, human
# Procedure: as §4
# FIGS. 7A-F show total intracellular GSH concentrations in various cells that were treated with BSO, FFAAP, and a combination of BSO and FFAAP at day 0 and day 2. FIGS. 7A-7C show intracellular GSH concentration in African green monkey (Chlorocebus sp.) Vero cells. […]
# Glutathione Precursors and Glutathione Assays. […] Intracellular glutathione levels (GSSG/GSH) were measured to quantify the levels of newly biosynthesized intracellular glutathione with molar quantities calculated using standard curves prepared with reduced and oxidized glutathione (Enzo Life Sciences, Farmingdale, NY), Standard error of the mean (SEM) was calculated using values from triplicate samples and coefficient of variance was calculated within each sample for each specific treatment group. […] Effective blockade was assessed by measurements of intracellular reduced and oxidized glutathione in the presence of inhibitor.
# [5] = tested on: total intracellular glutathione (GSH+GSSG); assay: Total intracellular glutathione in uninfected Vero cells; type: cell-based, African green monkey (Chlorocebus sp.); conditions: BSO treatment, initial studies
# Procedure: African green monkey (Chlorocebus sp.) Vero cells, grown to approximately 90-95% confluence (mid-log phase), were treated with and grown in the presence of increasing concentrations of FFAAP for three days. At each time point, medium was discarded and cells were harvested to measure intracellular concentrations of total GSH. All experiments shown were done in triplicate and the data shown are representative data from multiple independent experiments performed. Standard error bars were calculated using MICROSOFT EXCEL and significance assessments were performed using GRAPHPAD PRISM. * indicates a p-value <0.05 and >0.01; ** indicates a p-value <0.01 and >0.001; and *** indicates a p-value <0.001.
# Uninfected Vero cells were treated with 0, 2, 4, 6 mM concentrations of free-form amino acid precursors (FFAAP) for 72 hours. Vero cells infected with Zika virus were treated with the above concentration immediately for quantification of virus titers. […]
# as §3
# To determine the levels of intracellular glutathione in uninfected cells, FFAAP-treated and untreated cells, we quantified GSH/GSSG levels in each cell line over three days. Growth and viability of the cells were also assessed. […]
compound,measurement,setting,value
"CCCCS(=N)(=O)CC[C@H](N)C(=O)O (stereo partly drawn) [BSO, buthionine-(S,R)-sulfoximine]",intracellular levels of glutathione,[1],undetectable
same,Zika virus replication on blockage of glutathione biosynthesis,Zika virus [2],inhibition of Zika virus replication
same,Zika virus replication in Vero cells treated with BSO,Zika virus [3],Zika virus replicates even in Vero cells treated with BSO
same,intracellular glutathione levels,"[4]; JEG-3 cells, BSO treatment, initial studies",undetectable levels
same,intracellular GSH synthesis,[4]; Zika virus infected JEG-3 cells,blocked intracellular GSH synthesis
same,intracellular glutathione levels,[5],undetectable levels
